Reference: patent US20030181527A1, “Novel formulations of alpha-2,4-disulfophenyl-n-tert-butylnitrone” (priority 2000, published 2003)
Entries after “also recorded” stand apart in the source; their conditions may differ.

Columns and labels:
Type in all cases: physicochemical
[1] = Stability of 100 mg/ml aqueous solution with added factors (chelating agent, antioxidant, oxygen removal, pH)
Protocol: The effects of several added factors were investigated in experiments designed using a multivariate technique. An aqueous solution of α-(2,4-disulfophenyl)-N-tert-butylnitrone disodium salt (100 mg/ml) containing less than 0.3% 2,4-disulphobenzaldehyde disodium salt (II) was placed in sealed 10 ml glass vials with a fill volume of 10 ml. The concentrations of the degradation products and particularly of 2,4-disulphobenzaldehyde disodium salt (II) were measured by a chromatographic method after accelerated storage conditions at +40° C. and 75% relative humidity for two months.
Values are mean±standard deviation. n indicates the number of independent experiments. A t-test was performed to evaluate the significance of the different factors.

[2] = Photodegradation of aqueous solutions under indoor light; conditions: 400 mg/ml aqueous concentrate, room temperature, 8 hours, disodium salt
[3] = Stability of buffered and unbuffered solutions and concentrates at room temperature
Description: In a further study the stability of both buffered (sodium hydrogen carbonate) and unbuffered aqueous solutions and concentrates of α-(2,4-disulfophenyl)-N-tert-butylnitrone disodium salt stored at room temperature were compared. […] The buffered solutions show no apparent concentration dependent decomposition due to the short storage time and moderate storage temperature.

[4] = Stability after purging with different air/nitrogen gas mixtures; conditions: 400 mg/ml, pH 8.5; for Final Amount of Aldehyde (II) / Final Amount of Related Substances: 2 months +40° C./75% RH
Protocol: A concentrated aqueous solution of α-(2,4-disulfophenyl)-N-tert-butylnitrone disodium salt (400 mg/ml) and disodium hydrogen phosphate (5.3 mM) at pH 8.5 was purged with different levels of air/nitrogen gas mixtures. The solutions were stored in sealed 10 ml glass vials with a fill volume of 7 ml. The samples were stored for two months at +40° C. and 75% relative humidity.

[5] = Effect of chelator resin Chelex-100 on stability of concentrated aqueous solution; conditions: 100 mg/ml, 5.3 mM phosphate, pH 8.0
Protocol: A concentrated aqueous solution of α-(2,4-disulfophenyl)-N-tert-butylnitrone disodium salt (100 mg/ml) and disodium hydrogen phosphate (5.3 mM) at pH 8.0 was passed overnight through a column of the chelator resin, Chelex-100®. The resulting solution was placed in portions (8 ml) into 10 ml glass vials which were then sealed. The starting level of the aldehyde (II) was 0.20%. After two months at +40° C. and 75% relative humidity the concentration of the aldehyde (II) had increased to 2.3%. In a control experiment where the treatment with the resin was omitted, the level of the aldehyde (II) increased to 3.0%.

[6] = Effect of concentration on stability, phosphate-buffered solutions at +5° C.; conditions: 50 mM phosphate buffer
Protocol: In a third study aqueous solutions of α-(2,4-disulfophenyl)-N-tert-butylnitrone disodium salt (concentration either 200 mg/ml or 400 mg/ml) buffered with phosphate buffer (50 mM) were dispensed into 10 ml glass vials and stored at +5° C.

[7] = Effect of pH on stability of diluted 4 mg/ml solutions at room temperature
Description: The pH dependent degradation of aqueous solutions of α-(2,4-disulfophenyl)-N-tert-butylnitrone disodium salt has been extensively studied. […] Both solutions, which were obtained by appropriate dilution of a corresponding concentrate, were stored at room temperature under conditions that would reasonably simulate a diluted concentrate prepared ready for administration to patients.

[8] = 7.5 mg/ml buffered (sodium hydrogen carbonate), 0 hours
[9] = 7.5 mg/ml buffered (sodium hydrogen carbonate), 48 hours
[10] = 75 mg/ml buffered (sodium hydrogen carbonate), 0 hours
[11] = 75 mg/ml buffered (sodium hydrogen carbonate), 48 hours
[12] = 150 mg/ml buffered (sodium hydrogen carbonate), 0 hours
[13] = 150 mg/ml buffered (sodium hydrogen carbonate), 48 hours
[14] = 4 mg/ml buffered with phosphate (0.53 mM), 0 days
[15] = 4 mg/ml buffered with phosphate (0.53 mM), 1 day
[16] = 4 mg/ml buffered with phosphate (0.53 mM), 2 days
[17] = 4 mg/ml buffered with phosphate (0.53 mM), 5 days
[18] = 4 mg/ml buffered with phosphate (0.53 mM), 7 days
[19] = 4 mg/ml unbuffered solution, 0 days
[20] = 4 mg/ml unbuffered solution, 1 day
[21] = 4 mg/ml unbuffered solution, 2 days
[22] = 4 mg/ml unbuffered solution, 5 days
[23] = 4 mg/ml unbuffered solution, 7 days

CC(C)(C)[N+]([O-])=Cc1ccc(S(=O)(=O)[O-])cc1S(=O)(=O)[O-].[Na+].[Na+] [α-(2,4-disulfophenyl)-N-tert-butylnitrone disodium salt]
Initial content of 2,4-disulphobenzaldehyde disodium salt (II) ([1]; 100 mg/ml aqueous solution, before storage): less than 0.3% | Final Amount of Aldehyde (II) ([1]; 100 mg/ml, added EDTA, pH 7.0 to 8.8, 2 months +40° C./75% RH): 2.27 ± 0.12 area % | Final Amount of Aldehyde (II) ([1]; 100 mg/ml, added ascorbate, pH 7.0 to 7.3, 2 months +40° C./75% RH): 1.32 ± 0.11 (p < 0.001) area % | Final Amount of Aldehyde (II) ([1]; 100 mg/ml, added factor none, pH 7.0 to 8.2, 2 months +40° C./75% RH): 2.20 ± 0.11 area % | Final Amount of Aldehyde (II) ([1]; 100 mg/ml, nitrogen purge, pH 7.0 to 8.6, 2 months +40° C./75% RH): 1.34 ± 0.18 (p < 0.001) area % | Effect of pH on the degree of decomposition ([1]; pH 7 to 9, 100 mg/ml, 2 months +40° C./75% RH): no significant effect | Photodegradation [2]: no photodegradation; also recorded: no degradation at all | Amount of Aldehyde (II) [3, 8]: 0.6 Area % | pH [3, 8]: 8.1 | Amount of Aldehyde (II) [3, 9]: 0.7 Area % | pH [3, 9]: 8.7 | Amount of Aldehyde (II) ([3]; 7.5 mg/ml unbuffered, 0 hours): 1.0 Area % | pH ([3]; 7.5 mg/ml unbuffered, 0 hours): 5.8 | Amount of Aldehyde (II) ([3]; 7.5 mg/ml unbuffered, 48 hours): 2.4 Area % | pH ([3]; 7.5 mg/ml unbuffered, 48 hours): 6.3 | Amount of Aldehyde (II) [3, 10]: 0.6 Area % | pH [3, 10]: 8.0 | Amount of Aldehyde (II) [3, 11]: 0.7 Area % | pH [3, 11]: 8.1 | Amount of Aldehyde (II) ([3]; 75 mg/ml unbuffered, 0 hours): 1.1 Area % | pH ([3]; 75 mg/ml unbuffered, 0 hours): 6.1 | Amount of Aldehyde (II) ([3]; 75 mg/ml unbuffered, 48 hours): 1.9 Area % | pH ([3]; 75 mg/ml unbuffered, 48 hours): 6.7 | Amount of Aldehyde (II) [3, 12]: 0.6 Area % | pH [3, 12]: 7.9 | Amount of Aldehyde (II) [3, 13]: 0.7 Area % | pH [3, 13]: 7.8 | Amount of Aldehyde (II) ([3]; 150 mg/ml unbuffered, 0 hours): 1.0 Area % | pH ([3]; 150 mg/ml unbuffered, 0 hours): 6.1 | Amount of Aldehyde (II) ([3]; 150 mg/ml unbuffered, 48 hours): 1.7 Area % | pH ([3]; 150 mg/ml unbuffered, 48 hours): 6.7 | Initial aldehyde (II) ([4]; 5.3 mM phosphate, initial): 0.25 area % | Initial related substances ([4]; 5.3 mM phosphate, initial): 0.56 area % | Final Amount of Aldehyde (II) ([4]; 0% air in purge gas): 0.57 area % | Final Amount of Related Substances ([4]; 0% air in purge gas): 1.3 area % | Final Amount of Aldehyde (II) ([4]; 6.25% air in purge gas): 0.68 ± 0.08 (n = 2) area % | Final Amount of Related Substances ([4]; 6.25% air in purge gas): 1.5 ± 0.1 (n = 2) area % | Final Amount of Aldehyde (II) ([4]; 12.5% air in purge gas): 0.63 ± 0.01 (n = 2) area % | Final Amount of Related Substances ([4]; 12.5% air in purge gas): 1.4 area % | Final Amount of Aldehyde (II) ([4]; 25% air in purge gas): 0.77 area % | Final Amount of Related Substances ([4]; 25% air in purge gas): 1.6 area % | Final Amount of Aldehyde (II) ([4]; 50% air in purge gas): 0.93 area % | Final Amount of Related Substances ([4]; 50% air in purge gas): 1.9 area % | Final Amount of Aldehyde (II) ([4]; 100% air in purge gas): 1.27 area % | Final Amount of Related Substances ([4]; 100% air in purge gas): 2.4 area % | Concentration of the aldehyde (II) ([5]; Chelex-100 treated, 2 months +40° C./75% RH): 2.3% | Starting level of the aldehyde (II) ([5]; Chelex-100 treated, start): 0.20% | Level of the aldehyde (II) ([5]; resin treatment omitted, 2 months +40° C./75% RH): 3.0% | Amount of Aldehyde (II) ([6]; 200 mg/ml, 0 months): 0.1 Area % | pH ([6]; 200 mg/ml, 0 months): 8.0 | Amount of Aldehyde (II) ([6]; 200 mg/ml, 6 months): 0.4 Area % | pH ([6]; 200 mg/ml, 6 months): 7.9 | Amount of Aldehyde (II) ([6]; 200 mg/ml, 12 months): 0.6 Area % | pH ([6]; 200 mg/ml, 12 months): 7.9 | Amount of Aldehyde (II) ([6]; 200 mg/ml, 18 months): 0.7 Area % | pH ([6]; 200 mg/ml, 18 months): 8.0 | Amount of Aldehyde (II) ([6]; 400 mg/ml, 0 months): 0.1 Area % | pH ([6]; 400 mg/ml, 0 months): 8.0 | Amount of Aldehyde (II) ([6]; 400 mg/ml, 6 months): 0.3 Area % | pH ([6]; 400 mg/ml, 6 months): 7.8 | Amount of Aldehyde (II) ([6]; 400 mg/ml, 12 months): 0.4 Area % | pH ([6]; 400 mg/ml, 12 months): 7.8 | Amount of Aldehyde (II) ([6]; 400 mg/ml, 18 months): 0.4 Area % | pH ([6]; 400 mg/ml, 18 months): 7.9 | Amount of Aldehyde (II) [7, 14]: 0.8 Area % | pH [7, 14]: 8.0 | Amount of Aldehyde (II) [7, 15]: 0.9 Area % | pH [7, 15]: 7.9 | Amount of Aldehyde (II) [7, 16]: 0.9 Area % | pH [7, 16]: 7.7 | Amount of Aldehyde (II) [7, 17]: 1.0 Area % | pH [7, 17]: 7.5 | Amount of Aldehyde (II) [7, 18]: 1.1 Area % | pH [7, 18]: 7.5 | Amount of Aldehyde (II) [7, 19]: 0.9 Area % | pH [7, 19]: 6.8 | Amount of Aldehyde (II) [7, 20]: 1.1 Area % | pH [7, 20]: 6.8 | Amount of Aldehyde (II) [7, 21]: 1.2 Area % | pH [7, 21]: 6.8 | Amount of Aldehyde (II) [7, 22]: 1.6 Area % | pH [7, 22]: 6.8 | Amount of Aldehyde (II) [7, 23]: 2.0 Area % | pH [7, 23]: 6.7
